From patent US20190064177A1, “INCORPORATING COMPETITIVE BINDING INFORMATION INTO MOLECULAR ARRAY ANALYSIS TO GENERATE FUNCTION NETWORKS OF INTERACTIONS” (ARIZONA BOARD OF REGENTS ON BEHALF OF ARIZONA STATE …, priority 2017, published 2019)

System: diaphorase
Test: fluorescently labeled diaphorase binding to peptide array with or without excess FAD
Conditions: for Meas. ratio: ratio without/with FAD calculated from measured binding values; for Meas. ratio / 1 microM noFAD/FAD: 1 micromolar diaphorase; for 1 microM FAD (array fluorescence of bound diaphorase) / 1 micro no FAD (array fluorescence of bound diaphorase): 1 micromolar labeled diaphorase; for 1 microM FAD (array fluorescence of bound diaphorase) / 10 microM FAD (array fluorescence of bound diaphorase): excess FAD present; for 1 microM FAD (array fluorescence of bound diaphorase) / 1 micro no FAD (array fluorescence of bound diaphorase) / 10 microM FAD (array fluorescence of bound diaphorase) / 10 microM no FAD (array fluorescence of bound diaphorase): 65535 is detector saturation; for 10 microM FAD (array fluorescence of bound diaphorase) / 10 microM no FAD (array fluorescence of bound diaphorase): 10 micromolar labeled diaphorase; for 1 microM noFAD/FAD / 10 microM noFAD/FAD: ratio of binding without FAD to binding with FAD; for 10 microM noFAD/FAD: 10 micromolar diaphorase
Method: Measurements were performed in which diaphorase was bound to an array of about 126,000 unique sequences. The sequences were chosen simply to cover sequence space. 16 of the natural 20 amino acids were used to make up these sequences with C, I, M and T omitted. The diaphorase was fluorescently labeled and each peptide sequence feature was scanned and fluorescence recorded on the array. Diaphorase bound tightly to some peptides and not at all to others. Two different concentrations of diaphorase were used, 1 and 10 micromolar, and the diaphorase was either bound in the presence of excess FAD or not. […] Indeed the Pearson correlation coefficient between w/ and w/o FAD was >0.97, which actually speaks to the reproducibility of this dataset. However, there are some differences as shown on the scatter plot of FIG. 1. When one takes a ratio of the binding without FAD and the binding with FAD, one finds the following top 30 ratios (Table 1): Note that all these sequences end with a GSG linker sequence. Because there are two concentrations, one can easily check for consistency. Note that 65535 is detector saturation, so one has to ignore those values. For this reason, the lower concentration is used most of the time. […] It appears that this was some kind of error and was ignored in subsequent analysis. A similar conclusion can be made with the 7th highest value. Looking at the sequences, RW or at least R or K followed by a nonpolar or aromatic amino acid at the N-terminus. This is interesting as FAD is negatively charged, though the adenine in FAD looks a bit like tryptophan (see FIG. 2).

Row | Sequence | Meas. ratio | 1 microM FAD (array fluorescence of bound diaphorase) | 1 micro no FAD (array fluorescence of bound diaphorase) | 10 microM FAD (array fluorescence of bound diaphorase) | 10 microM no FAD (array fluorescence of bound diaphorase) | 1 microM noFAD/FAD | 10 microM noFAD/FAD
1 | YRRFPYFPGGSG [array peptide with C-terminal GSG linker] | 1.60 |  |  |  |  |  | 
2 | PQKSNHFHEAQKR | 2.41 |  |  |  |  |  | 
3 | RYYPAFSGGSG [array peptide with C-terminal GSG linker] | 2.91 | 7535.25 | 21898 | 65535 | 65535 | 2.906 | 1
4 | YSVDYWYQVDGSG [array peptide with C-terminal GSG linker] | 0.17 | 10415 | 1802.5 | 19218.25 | 19784.75 | 0.1731 | 1.029
5 | VLAYKLQVDGSG [array peptide with C-terminal GSG linker] | 0.68 |  |  |  |  |  | 
6 | RYNLYKPSDGSG [array peptide with C-terminal GSG linker] | 2.87 | 1245.75 | 3569.5 | 18165 | 50327.75 | 2.865 | 2.771
7 | YRFAQYKGQKDGSG [array peptide with C-terminal GSG linker] | 2.78 | 1604.25 | 4467.75 | 19933.75 | 56915 | 2.785 | 2.855
8 | KHSFQKELGGSG [array peptide with C-terminal GSG linker] | 2.87 | 727.5 | 2086 | 300.5 | 2387.25 | 2.867 | 0.7943
9 | EGFGYLFAHVGGS | 0.78 |  |  |  |  |  | 
10 | ALDKLSGLWKHVG | 0.69 |  |  |  |  |  | 
11 | PVPWRHVNYAHSG | 0.69 |  |  |  |  |  | 
12 | RVLPYHGWKWFSG | 2.45 |  |  |  |  |  | 
13 | VSWVFGLGHEGGS | 0.71 |  |  |  |  |  | 
14 | NHLLEGAFVSEGS | 0.77 |  |  |  |  |  | 

Continued, values first:

Row | Meas. ratio | 1 microM FAD (array fluorescence of bound diaphorase) | 1 micro no FAD (array fluorescence of bound diaphorase) | 10 microM FAD (array fluorescence of bound diaphorase) | 10 microM no FAD (array fluorescence of bound diaphorase) | 1 microM noFAD/FAD | 10 microM noFAD/FAD | Sequence
15 | 0.50 | 3876 | 1953.667 | 12238.917 | 17018.417 | 0.504 | 1.391 | RSHPKHNVGSG [array peptide with C-terminal GSG linker]
16 | 2.66 | 2940.75 | 7830.5 | 48587 | 65535 | 2.663 | 1.349 | RNWYGGSG [array peptide with C-terminal GSG linker]
17 | 2.71 | 1489.75 | 4041.25 | 20226.25 | 50316.25 | 2.713 | 2.488 | YRFQSGLPAKDGSG [array peptide with C-terminal GSG linker]
18 | 0.61 | 3403 | 2083.5 | 25315 | 12943.5 | 0.6123 | 0.5113 | ELFGALFKGGSG [array peptide with C-terminal GSG linker]
19 | 0.51 | 6311.5 | 3228.25 | 53382.25 | 19529.5 | 0.5115 | 0.3658 | QLLQLLFGGSG [array peptide with C-terminal GSG linker]
20 | 0.18 | 12347.25 | 2221 | 17803.5 | 20355.75 | 0.1799 | 1.143 | VKDGNKHYWRVSGSG (VKDGANKHYWRVSGSG) [array peptide with C-terminal GSG linker]
21 | 2.76 | 3162 | 8721.5 | 55433.5 | 65535 | 2.758 | 1.182 | RAQYAQYLFGGSG [array peptide with C-terminal GSG linker]
22 | 2.60 | 1546 | 4014 | 18565.25 | 41333.25 | 2.596 | 2.226 | YNRNAKSSGGSG [array peptide with C-terminal GSG linker]
23 | 2.73 | 4971.5 | 13584.75 | 64053.5 | 65535 | 2.733 | 1.023 | RYAYFQHLGGSG [array peptide with C-terminal GSG linker]
24 | 2.75 | 2460 | 6757 | 27275.5 | 57203.5 | 2.747 | 2.097 | RQYQKHSYAKFSGSG [array peptide with C-terminal GSG linker]
25 | 0.60 | 2420 | 1457.5 | 17702.75 | 5389.5 | 0.6023 | 0.3044 | EAVQKLLFSGSG [array peptide with C-terminal GSG linker]
26 | 0.13 | 4165.5 | 560.55 | 1378.5 | 1220.25 | 0.1346 | 0.8852 | EDEGLSKFEGGSG [array peptide with C-terminal GSG linker]
